From ChEMBL document CHEMBL3232965, “The σ2 receptor: a novel protein for the imaging and treatment of cancer” (J Med Chem, 2013) come the findings set out here.

A value given as a limit tells only on which side of the number the result lay.

Series [1] can be described thus: Binding affinity to sigma-2 opioid receptor (unknown origin). Also on record: species or system Homo sapiens.
The species entered for series [2] is Homo sapiens. The series is described as follows: Selectivity ratio of IC50 for sigma-1 opioid receptor (unknown origin) to IC50 for sigma-2 opioid receptor (unknown origin).
Series [3] has as its target Sigma non-opioid intracellular receptor 1 (Homo sapiens, UniProt Q99720). The series is described as follows: Binding affinity to sigma-1 opioid receptor (unknown origin).
The species entered for series [4] is Cavia porcellus. Briefly: Selectivity ratio of Ki for guinea pig brain membrane sigma-1 opioid receptor to Ki for guinea pig brain membrane sigma-2 opioid receptor.
Series [5] can be described thus: Binding affinity to sigma-1 opioid receptor (unknown origin).
A short description of series [6]: Lipophilicity, log P of the compound. It is filed as physicochemical. As to conditions: octanol/water.
Series [7] is filed under the species Homo sapiens. The series is described as follows: Selectivity ratio of Ki for sigma-1 opioid receptor (unknown origin) to Ki for sigma-2 opioid receptor (unknown origin).
Series [8] has as its target Sigma non-opioid intracellular receptor 1 (Cavia porcellus, UniProt Q60492). The series is described as follows: Binding affinity to guinea pig brain membrane sigma-1 opioid receptor by radioligand displacement assay.
Series [9] is described as follows: Binding affinity to guinea pig brain membrane sigma-2 opioid receptor by radioligand displacement assay. On the set-up: species or system Cavia porcellus.
Series [10] in a line: Displacement of [3H]-DTG from sigma-2 opioid receptor in rat liver.
The nature of series [11]: Selectivity ratio of Ki for guinea pig brain sigma-1 opioid receptor to Ki for rat liver sigma-2 opioid receptor.
A short description of series [12]: Displacement of [3H]progesterone from sigma-1 opioid receptor in porcine liver microsome membranes. It is filed as microsomes, Sus scrofa.
Series [13] is described as follows: Ratio of drug level in nuclear fraction to cytosolic fraction of human MCF7/ADR cells at 20 to 50 uM after 2 hrs by beta counting analysis. As to conditions: nci/adr-res. It is filed as ADME, cell-based.
Series [14] can be described thus: Ratio of drug level in nuclear fraction to cytosolic fraction of human SK-N-SH cells at 20 to 50 uM after 2 hrs by beta counting analysis. It is filed as ADME, cell-based.
The nature of series [15]: Displacement of [3H]ditolylguanidine from sigma-2 opioid receptor in rat liver membranes by liquid scintillation spectrometric analysis. It is filed as cell membranes, Membrane.
The subject of another series is TRAMP. The series is described as follows: Selectivity ratio of Ki for sigma-1 opioid receptor in TRAMP cell membranes to Ki for sigma-2 opioid receptor in TRAMP cell membranes. It is filed as cell-based. The conditions noted are these: Mus musculus.
The nature of series [16]: Binding affinity to guinea pig hippocampus sigma-2 opioid receptor. On the set-up: species or system Cavia porcellus.
For series [17], the species on record is Cavia porcellus. The series is described as follows: Selectivity ratio of Ki for guinea pig hippocampus sigma-1 opioid receptor to Ki for guinea pig hippocampus sigma-2 opioid receptor.
The nature of series [18]: Displacement of [3H]di-o-tolylguanidine from sigma-2 opioid receptor in rat brain. It is filed as tissue-based.

Chain of Sigma non-opioid intracellular receptor 1 (Homo sapiens, UniProt Q99720) (Q99720 whole entry): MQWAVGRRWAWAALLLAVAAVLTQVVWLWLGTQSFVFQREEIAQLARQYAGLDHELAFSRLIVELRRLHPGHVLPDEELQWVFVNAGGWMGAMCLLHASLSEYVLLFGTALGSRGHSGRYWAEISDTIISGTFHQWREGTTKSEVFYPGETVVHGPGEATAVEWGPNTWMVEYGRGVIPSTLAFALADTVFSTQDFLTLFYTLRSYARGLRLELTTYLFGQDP
Chain of Sigma non-opioid intracellular receptor 1 (Cavia porcellus, UniProt Q60492) (Q60492 whole entry): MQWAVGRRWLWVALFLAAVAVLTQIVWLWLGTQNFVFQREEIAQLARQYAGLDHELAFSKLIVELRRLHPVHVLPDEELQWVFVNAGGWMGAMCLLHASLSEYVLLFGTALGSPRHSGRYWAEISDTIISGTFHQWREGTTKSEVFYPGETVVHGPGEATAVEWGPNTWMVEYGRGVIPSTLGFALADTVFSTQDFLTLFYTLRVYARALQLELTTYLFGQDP

As for `O=S(=O)(c1ccccc1)n1cc(CCCCN2CCC3(CC2)OCc2ccccc23)c2ccccc21`, the values for the Ki in series [1] and in series [3] were 0.17 nM and 10 nM, respectively. In the series filed under Homo sapiens [2], the Ratio IC50 is 59.
Take `CS(=O)(=O)n1cc(CCCCN2CCC3(CC2)OCc2ccccc23)c2ccccc21`: the Ki in series [1] worked out at 0.05 nM; in series [3], 1.3 nM. The Ratio IC50 in the series listed under Homo sapiens [2] is 26.
With `COC(=O)[C@@]1(c2ccccc2)C[C@H]1CN1C2CCC1CC(O)(c1ccc(Cl)cc1)C2` (stereo partly drawn), the Ratio Ki in the series filed under Cavia porcellus [4] came out at 20.6.
`CC[C@H]1C[C@@H]2C[C@H]3c4[nH]c5ccc(OC)cc5c4CCN(C2)[C@@H]13` [IBOGAINE] came in with a Ki in series [3] of 8550 nM. This counts as single-digit micromolar.
As for `COc1cc2c(cc1OC)CN(CCNC(=O)c1cc(C)ccc1OC)CC2`, in series [1], the affinity, expressed as Ki, was 13.3 nM.
For `COc1cc(Br)cc(C(=O)NCCCCN2CCN(c3cccc(Cl)c3Cl)CC2)c1OC`, the Ki in series [1] turned out to be 75 nM; in series [5], 809 nM. Besides, the lipophilicity (logP) in series [6] was found to be 5.76.
For `CC[C@H]1C[C@H]2C[C@H]3c4[nH]c5ccc(OC)cc5c4CCN(C2)[C@@H]13` [IBOGAINE], the Ratio Ki in the series filed under Homo sapiens [7] was 43. This compound also displayed a Ki in [1] of 201 nM.
Turning to `COc1ccc(C(=O)NCCCCN2CCc3ccc([N+](=O)[O-])cc3C2)c(OC)c1OC`, in the series listed under Homo sapiens [7], the Ratio Ki worked out at 385. Also, the Ki in series [1] is 26.8 nM; in [3] it was 10300 nM.
For the compound `CN1CC[C@]2(c3cccc(O)c3)CC(=O)/C(=C/c3ccc(Cl)c(Cl)c3)[C@H]1C2`, the Ratio Ki in the series listed under Homo sapiens [7] was determined as 555. For the same compound, the values for the Ki in series [1] and in series [3] were 13.4 nM and 7440 nM, respectively.
Regarding `OC12C3C4CC5C6C4C1C6C(C53)N2Cc1ccc(F)cc1` (stereo not drawn), the figures for the inhibitory constant (Ki) in series [8] and in series [9] were 152 nM and 20 nM, respectively. Also, the Ratio Ki in the series listed under Cavia porcellus [4] is 7.6.
`COc1cccc2c1CCC[C@@H]2NC(=O)CN1CCN(C2CCCCC2)CC1` had an inhibitory constant (Ki) in series [10] of 6 nM. In addition, the Ratio Ki in series [11] was found to be 16.
For `CC(C)=CCN1CC[C@]2(C)c3cc(O)ccc3C[C@H]1[C@H]2C` [(+)-PENTAZOCINE], the inhibition constant (Ki) in series [12] is 1130 nM. This lies in the single-digit micromolar range.
In the case of `COc1cccc2c1CCCC2CCCN1CCN(C2CCCCC2)CC1` (racemic), the Ratio in [13] and in [14] was 5 throughout. In addition, the Ratio Ki in series [11] stood at 0.56.
On to `COc1cc2c(cc1OC)CN(CCCCNC(=O)c1cc(Br)cc(OC)c1OC)CC2`, for which the inhibition constant (Ki) in [1] is 8.2 nM. In other words, the single-digit nanomolar range.
In [10], `COc1cccc2c1CCC[C@H]2NC(=O)CN1CCN(C2CCCCC2)CC1` displayed a Ki of 10.1 nM. The Ratio Ki in [11] came out at 2.
For `COc1ccc(CN2C3CCC2CC3)cc1OC`, the Ki in series [1] was 43 nM. That is a double-digit nanomolar value.
As for `COc1cccc2c1CCCC2CCCN1CCC(C2CCCCC2)CC1` (stereo not drawn), in series [10], affinity was put at a Ki of 18.8 nM. Further, the Ratio Ki in series [11] stood at 7.6.
Take `CN1CC[C@@]2(c3cccc(O)c3)CC(=O)/C(=C/c3cccc(O)c3)[C@@H]1C2`: in the series filed under Homo sapiens [7], the Ratio Ki was 0.07. The Ki in [1] is 153 nM; in [3], 10.5 nM.
Take `CN1CC[C@]2(c3cccc(O)c3)CC(=O)/C(=C/c3cccc(O)c3)[C@H]1C2`: the Ratio Ki in the series listed under Homo sapiens [7] turned out to be 185. For the same compound, the Ki worked out at 16.5 nM in series [1] and 3060 nM in [3].
With `Fc1ccccc1N1CCN(CCCn2ccc3ccccc32)CC1`, in the series listed under Homo sapiens [7], the Ratio Ki stood at 20. Further, the Ki in [1] was 75 nM; in series [3], 1490 nM.
For the compound `CN1CC[C@@]2(c3cccc(O)c3)CC(=O)/C(=C/c3ccc(Cl)c(Cl)c3)[C@@H]1C2`, the Ratio Ki in the series listed under Homo sapiens [7] came to 0.77. For the same compound, the Ki in [1] amounted to 35.3 nM; in series [3], 27.3 nM.
With `Fc1ccc(C2=CC3CCC(C2)N3CCCCc2cn(-c3ccc(F)cc3)c3ccccc23)cc1` (stereo not drawn), the inhibitory constant (Ki) in series [1] was found to be 2.5 nM; in [3] it was 1200 nM. Also, in the series listed under Homo sapiens [2], the Ratio IC50 was 480.
The compound `CC(=O)[C@H]1CC[C@H]2[C@@H]3CCC4=CC(=O)CC[C@]4(C)[C@H]3CC[C@]12C` [PROGESTERONE] registered a Kd in series [15] of 441 nM.
As to `COc1cc2c(cc1OC)CN(CCNC(=O)c1cc(Br)ccc1OC)CC2`, the Ki was 12.4 nM in series [1] and 5480 nM in series [5].
For `COc1cccc2c(CCCN3CCN(C4CCCCC4)CC3)cccc12`, the Ratio Ki in the series with TRAMP amounted to 13.
`CCn1c(=O)n(C(=O)NC2CC3CCC(C2)N3C)c2ccccc21` (stereo not drawn): in series [16], the affinity corresponds to a Ki of 32 nM. Further, the Ratio Ki in the series listed under Cavia porcellus [17] turned out to be 197.
`COc1cccc2c1CCCC2CCCC1CCN(C2CCCCC2)CC1` (stereo not drawn) had an inhibition constant Ki in [10] of 26.6 nM. In addition, the Ratio Ki in series [11] worked out at 29.
For the compound `COc1ccc(C)cc1NC(=O)OC1CC2CCCC(C1)N2Cc1ccc(N(C)C)cc1` (stereo not drawn), the Ratio Ki in the series filed under Homo sapiens [7] was determined as 553. Besides, the Ki in series [1] is 2.6 nM; in series [3] it was 1440 nM.
As to `CC(=O)c1ccc2c(c1)oc(=O)n2CCCCN1CCN(c2ccc(F)cc2)CC1`, the Ki in series [18] was 7 nM.
Consider `CCC(Oc1ccc(Cl)cc1)C(=O)OC1CC2CCC(C1)N2C` (racemic), for which, in the series filed under Homo sapiens [7], the Ratio Ki was over 15. Moreover, the inhibition constant Ki was 67.5 nM in series [1] and over 1000 nM in series [3].
Consider `COc1cc2c(cc1OC)CN(CCNC(=O)c1cc(Br)cc(OC)c1OC)CC2`, for which the Ratio Ki in the series listed under Homo sapiens [7] is 179. Moreover, the results for the inhibition constant (Ki) in series [1] and in [5] were 16.4 nM and 2930 nM, respectively.
